{"source": "paper PMC10511816", "about": "(The Journal of Biological Chemistry, 2023)", "key": {"[1]": {"test_system": "mouse model of hyperuricemia", "assay": "mouse model of hyperuricemia (potassium oxonate), plasma purines by HPLC", "assay_type": "in vivo", "conditions": "for plasma hypoxanthine levels vs control / plasma xanthine levels vs control: 1 h", "procedure": "To compare the inhibitory effect of allopurinol and oxypurinol on uric acid production, mice were treated with oxonate to inhibit uricase and induce hyperuricemia.\nFigure 2 Comparison of the effects of allopurinol and oxypurinol in a model of hyperuricemia. […] Statistical analysis was performed using one-way ANOVA and Turkey’s multiple comparison test. ∗p < 0.05, ∗∗p < 0.01, ∗∗∗∗p < 0.0001.\nSix-week-old specific-pathogen free-grade male Institute of Cancer Research mice were purchased from Japan SLC. All animal experiments were performed according to the protocol approved by the Animal Care and Ethics Committee of Tokyo University of Pharmacy and Life Sciences (Permit No. P21-80). Mice were housed under conditions of 22 to 24 °C, 40 to 60% humidity, and a 12-h light/12-h dark cycle. Food and water were administered ad libitum.\nOxypurinol or allopurinol was suspended in 0.5% carboxymethyl cellulose and administered intraperitoneally at 3 mg/kg or 10 mg/kg (n = 11). The control group received 0.5% carboxymethyl cellulose (n = 5). Immediately after intraperitoneal administration, potassium oxonate was injected subcutaneously at 300 mg/kg. One hour after administration, mice were sacrificed by cervical dislocation, and blood was collected with heparin. […] Statistical analysis was performed using GraphPad Prism 9 software (www.graphpad.com).\nPurine concentrations were measured using a Shimadzu HPLC system consisting of the CBM-20A controller, LC-20AD pump, SIL-20AC autosampler (set at 4 °C), CTO-20A column oven (set at 40 °C), and SPD-M20A diode array detector. Peak analysis was performed using LC solution software. A SUPELCOSIL LC-18-T column (25 cm × 4.6 mm id 5 μm particle size) was used with the SUPELCOSIL LC-18-T Supelguard guard column separation of purines, using a flow rate was 0.8 ml/min and 10 or 20 μl samples. The mobile phase used was A: 0.1 M KPB and 4 mM tetrabutylammonium hydrogen sulfate (pH 5.5), B: 70% buffer A and 30% methanol (v/v). Gradient conditions were 0 min (0% B), 2 min (0% B), 4 min (30% B), 12 min (60% B), 15 min (100% B), 19 min (100% B), 20 min (0% B), and 30 min (0% B). Detection wavelengths were 254 nm, 268 nm, and 295 nm. The data were analyzed using LabSolutions Ver. 5.97 SP1. All purines were identified by retention time and quantified using an external standard."}, "XDH": {"target": "XDH (Bos taurus, UniProt P80457)", "sequence (P80457 whole entry)": "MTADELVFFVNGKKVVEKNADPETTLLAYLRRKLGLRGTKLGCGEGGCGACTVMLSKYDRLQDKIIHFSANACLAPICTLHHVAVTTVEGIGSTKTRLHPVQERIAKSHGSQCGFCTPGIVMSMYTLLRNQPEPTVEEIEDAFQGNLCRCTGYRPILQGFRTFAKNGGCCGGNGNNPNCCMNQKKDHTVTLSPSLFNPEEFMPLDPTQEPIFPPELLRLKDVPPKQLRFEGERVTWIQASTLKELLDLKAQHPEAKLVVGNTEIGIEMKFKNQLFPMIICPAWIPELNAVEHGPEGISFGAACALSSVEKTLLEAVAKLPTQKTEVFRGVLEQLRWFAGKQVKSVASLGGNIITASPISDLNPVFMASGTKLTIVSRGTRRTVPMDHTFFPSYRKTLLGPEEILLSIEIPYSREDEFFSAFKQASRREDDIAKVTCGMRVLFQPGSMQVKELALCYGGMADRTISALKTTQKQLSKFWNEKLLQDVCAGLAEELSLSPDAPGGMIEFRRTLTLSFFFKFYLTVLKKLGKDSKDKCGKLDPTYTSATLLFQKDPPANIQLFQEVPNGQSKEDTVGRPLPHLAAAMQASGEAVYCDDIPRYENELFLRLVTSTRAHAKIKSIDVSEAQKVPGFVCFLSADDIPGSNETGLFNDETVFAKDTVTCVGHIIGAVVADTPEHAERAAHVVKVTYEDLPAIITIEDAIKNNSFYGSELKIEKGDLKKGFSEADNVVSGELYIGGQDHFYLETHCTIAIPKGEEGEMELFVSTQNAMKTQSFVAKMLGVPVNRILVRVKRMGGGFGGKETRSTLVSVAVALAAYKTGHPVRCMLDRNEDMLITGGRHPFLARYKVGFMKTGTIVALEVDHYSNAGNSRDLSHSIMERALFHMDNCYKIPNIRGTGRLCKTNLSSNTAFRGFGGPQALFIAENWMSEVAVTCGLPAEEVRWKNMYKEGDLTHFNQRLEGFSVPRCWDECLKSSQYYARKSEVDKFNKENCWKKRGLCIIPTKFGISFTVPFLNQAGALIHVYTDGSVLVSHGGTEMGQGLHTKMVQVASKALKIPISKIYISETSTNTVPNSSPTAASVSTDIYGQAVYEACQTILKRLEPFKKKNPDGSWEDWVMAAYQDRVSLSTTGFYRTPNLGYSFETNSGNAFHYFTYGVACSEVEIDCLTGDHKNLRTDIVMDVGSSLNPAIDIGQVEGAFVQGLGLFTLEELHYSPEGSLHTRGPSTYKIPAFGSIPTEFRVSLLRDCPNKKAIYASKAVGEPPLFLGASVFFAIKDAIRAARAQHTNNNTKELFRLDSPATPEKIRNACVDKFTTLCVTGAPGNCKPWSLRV", "conditions": "2 μM hypoxanthine, 500 μM β-NAD+, 6 nM XDH, pH 8.5, 25 °C", "procedure": "The rate of NAD^+ conversion to NADH was measured at A340 nm.\nBovine milk was obtained from the animal farm of the Nippon Veterinary and Life Science University. […] The dehydrogenase form of the enzyme (XDH) was obtained by reacting XO immediately upon purification with 5 mM DTT at pH 8.5, 25 °C for 1 h. XO and XDH assays were carried out at 25 °C under aerobic conditions. […] A total of 500 μM β-NAD^+ was added to the same reaction solution for XDH activity. Physiological conditions such as pH 7.4 (0.1 M potassium phosphate buffer (KPB), 0.2 mM EDTA) and the addition of 50 μM β-NADH were also used. The activity was measured by following 295 nm and 340 nm on a UV-1800 or UV1900i spectrophotometer. […] In addition, the enzyme reaction solution was quenched with perchloric acid and neutralized with K2CO3, with products analyzed using HPLC as described below. Spectrophotometric data were analyzed using UV-Probe software Ver. 2.70 or LabSolutions UV-Vis Ver. […] Kinetic parameters were determined from nonlinear curve fits of raw data using GraphPad Prism 9 software."}, "XO": {"target": "XO (Bos taurus, UniProt P80457)", "sequence (P80457 whole entry)": "as above", "conditions": "3 μM allopurinol, 2 μM xanthine, 2.56 nM XO, pH 7.4, 37 °C"}, "[2]": {"target": "T1, Purine nucleoside phosphorylase (PNP) (Homo sapiens, UniProt P00491)", "T1 construct": "purchased Sigma-Aldrich; host or cells: E. coli", "T1 sequence (P00491 1-289)": "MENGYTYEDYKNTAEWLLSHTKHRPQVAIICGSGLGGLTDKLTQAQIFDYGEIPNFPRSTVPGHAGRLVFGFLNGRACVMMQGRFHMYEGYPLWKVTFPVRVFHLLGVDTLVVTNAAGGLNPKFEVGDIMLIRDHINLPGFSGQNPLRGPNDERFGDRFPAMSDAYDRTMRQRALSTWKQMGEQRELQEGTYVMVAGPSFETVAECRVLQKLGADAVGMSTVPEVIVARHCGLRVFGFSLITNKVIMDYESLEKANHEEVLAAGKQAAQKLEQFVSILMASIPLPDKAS", "assay": "PNP activity assay (inosine degradation, HPLC)", "assay_type": "biochemical", "conditions": "human recombinant PNP", "description": "Plasma allopurinol never reaches that concentration, but oxypurinol concentrations could ([34], [35]). Although oxypurinol has been reported to have a stronger inhibitory effect than allopurinol ([32], [36]), the results were obtained prior to several reports on the cooperativity of PNP ([37]). […] This nonideal behavior may be a manifestation of the well-established allosteric properties of PNP ([37]).\nPurine nucleoside phosphorylase (human, recombinantly expressed in E. coli) was purchased from Sigma-Aldrich. The reaction solution for inosine hydrolysis consisted of 50 mM KPB (pH 7.4), with varying concentrations of inosine and oxypurinol.\nA295 indicates the concentration of uric acid yielded by XOR. […] A295 indicates the concentration of uric acid yielded by XOR. Figure S2. The XOR inhibition mode of oxypurinol.A–G, Lineweaver-Burk plots were generated to visualize data and estimated the inhibition patterns. Data are representative of least two independent experiments. […] The same as in A except that 1.23 nM XDH was used instead of XO and 500 μM NAD^+ was added to the reaction solution. […] The same as in D except that hypoxanthine was used instead of xanthine. […] The same as in D except that febuxostat was used instead of oxypurinol. […] The same as in F except that hypoxanthine was used instead of xanthine. Figure S3. […] Hypoxanthine, xanthine, and uric acid were measured by HPLC."}, "xanthine oxidase": {"test_system": "xanthine oxidase", "design": "method as in Graham et al. 64", "conditions": "ref Graham et al. 64; cited from earlier work"}, "[3]": {"conditions": "3 mg/kg intraperitoneal, 1 h after administration, oxonate-treated mice"}, "[4]": {"conditions": "one hour after 3 mg/kg allopurinol intraperitoneal"}}, "data": [{"molecule": "Oc1ncnc2[nH]ncc12", "note": "[Allopurinol]", "values": [{"measurement": "plasma hypoxanthine levels vs control", "setting": "[1]; 3 mg/kg intraperitoneal", "result": "significantly increased plasma hypoxanthine levels"}, {"measurement": "plasma xanthine levels vs control", "setting": "[1]; 3 mg/kg intraperitoneal", "result": "xanthine levels were largely unaffected"}, {"measurement": "plasma uric acid levels compared to the control group", "setting": "[1]; [3]", "result": "significantly decreased plasma uric acid levels"}, {"measurement": "allopurinol in plasma", "setting": "[1]; [4]", "result": "little allopurinol was detected in the plasma"}, {"measurement": "oxypurinol in plasma", "setting": "[1]; [4]", "result": "a small amount of oxypurinol was also observed"}, {"measurement": "concentration above which NADH formation is immediately inhibited", "setting": "XDH", "result": "Above 5 μM"}, {"measurement": "immediate accumulation of oxypurinol", "setting": "XO", "result": 0.5, "unit": "µM"}, {"measurement": "time at which xanthine was completely converted to uric acid", "setting": "XO", "result": 300, "unit": "min"}, {"measurement": "time for which uric acid production was stopped", "setting": "XO", "result": "up to 60 min"}]}, {"molecule": "O=c1[nH]c(=O)c2c[nH]nc2[nH]1", "note": "[Oxypurinol]", "values": [{"measurement": "inhibition of PNP", "setting": "[2]", "result": "weakly but allosterically inhibits PNP"}, {"measurement": "mode of inhibition for inosine", "setting": "[2]; 50 mM KPB pH 7.4, 0-1000 μM oxypurinol", "result": "competitive"}, {"measurement": "plasma hypoxanthine levels vs control", "setting": "[1]; 3 mg/kg intraperitoneal", "result": "neither hypoxanthine nor xanthine concentrations were significantly different from the control group"}, {"measurement": "plasma xanthine levels vs control", "setting": "[1]; 3 mg/kg intraperitoneal", "result": "neither hypoxanthine nor xanthine concentrations were significantly different from the control group"}, {"measurement": "plasma uric acid levels compared to the control group", "setting": "[1]; [3]", "result": "did not significantly reduce plasma uric acid levels"}, {"measurement": "plasma hypoxanthine levels vs control", "setting": "[1]; 10 mg/kg intraperitoneal", "result": "neither hypoxanthine nor xanthine concentrations were significantly different from the control group"}, {"measurement": "plasma xanthine levels vs control", "setting": "[1]; 10 mg/kg intraperitoneal", "result": "neither hypoxanthine nor xanthine concentrations were significantly different from the control group"}, {"measurement": "plasma uric acid levels", "setting": "[1]; 10 mg/kg intraperitoneal, 1 h after administration, oxonate-treated mice", "result": "reduce plasma uric acid to that seen with 3 mg/kg allopurinol"}, {"measurement": "oxypurinol concentration at which xanthine oxidase is maximally inhibited", "setting": "xanthine oxidase", "result": 33.75, "unit": "µM"}]}]}
